The text below walks through data of patent US20070054940A1, “Remedy for down's syndrome” (EISAI CO., LTD., priority 2003, published 2007).

Where a name gives a salt, the structure may show the parent alone.

Data set [1] in a line: Blood concentration in the patient with rapid retrogression. Particulars: human, in vivo; 2 mg/day oral, house visit after 2 months. On the procedure: It was confirmed that the subject was spontaneously getting up in the morning with extreme regularity. In addition, in daily activities the patient was sorting laundry, and before administration could not fold one piece in 30 minutes, but after administration could process 10 to 20 pieces in 10 minutes, and was approaching the level prior to the symptoms of rapid retrogression. Furthermore, the patient was able to spontaneously take medicine without the instruction of a parent. […] The blood concentration was 13.7 ng/mL.

The test system of data set [2] is human children with Down's syndrome. Particulars: 25 human children with Down's syndrome; cited from earlier work.
The test system of data set [3] is Down's syndrome model mouse. Particulars: cited from earlier work.
For a further data set, the system named is Down's syndrome. Particulars: in vivo; cited from earlier work.

`COc1cc2c(cc1OC)C(=O)C(CC1CCN(Cc3ccccc3)CC1)C2` (stereo not shown) [donepezil hydrochloride]: the concentration at 2 months in data set [1] came out at 13.7 ng/mL.

In the case of `NC(=O)CN1CCCC1=O` [piracetam], the Cognitive function result is reported as “no improvement in cognitive function was seen” in data set [2] and “an effect in improving cognitive function was seen” in data set [3].

As to `N[C@@H](Cc1c[nH]c2ccc(O)cc12)C(=O)O` [5-hydroxytryptophan], the “Development of motor skills, language skills, intelligence, or socialization” value in the data set with Down's syndrome is given as “no efficacy was seen”.
